From the supplement of paper PMC10307832

What was measured:
Experiment in all cases: relative viability (nuclei count vs DMSO), 5 days (fraction); higher = more cells survive
[1] = compound: C1=CC2=NC=CN=C2C=C1/C=C/3\C(=O)NC(=O)S3 + COc1cc2c(Oc3ccc(NC(=O)C4(C(=O)Nc5ccc(F)cc5)CC4)cc3F)ccnc2cc1OCCCN1CCOCC1 [Foretinib] (partner 0.25 µM)
Outline: (§1)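 Values are medians from duplicate plates. Each reflects relative viability, defined as the nuclei count of treated wells over that of vehicle wells. Lung cancer cell lines in 1536-well plates were pin-tool dosed one day after seeding with one drug alone or with a fixed anchor-drug dose plus five library-drug doses (not always all listed) in √10 steps, then fixed, stained and imaged at 4× after 5 days.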

[2] = compound: C1=CC2=NC=CN=C2C=C1/C=C/3\C(=O)NC(=O)S3 + CS(=O)(=O)CCNCc1ccc(-c2ccc3ncnc(Nc4ccc(OCc5cccc(F)c5)c(Cl)c4)c3c2)o1 [Lapatinib] (partner 2 µM)
Outline: as §1

[3] = compound: C1=CC2=NC=CN=C2C=C1/C=C/3\C(=O)NC(=O)S3
Outline: (§2)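 After an overnight hold at 37 °C, lung cancer cell lines in 1536-well plates were pinned with five library-drug doses (not always all listed), each √10 from the next, on vehicle-anchored plates. The cells stayed 5 days without fresh medium, then a one-step fix, permeabilisation and Hoechst stain preceded 4× imaging and MetaXpress nuclear counts. A plate passed only with control CV under 25% and at least one doubling. Viability is the median, over plates, of treated-well nuclei relative to vehicle-well nuclei.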

BGJ398 = compound: CCN1CCN(c2ccc(Nc3cc(N(C)C(=O)Nc4c(Cl)c(OC)cc(OC)c4Cl)ncn3)cc2)CC1 [BGJ398]
Outline: as §2

Cell Line: UMC-11
- relative viability ([1]; first compound 0.02 µM): 1.03
- relative viability ([1]; first compound 0.06325 µM): 1.03
- relative viability ([1]; first compound 0.2 µM): 1.09
- relative viability ([1]; first compound 0.6325 µM): 0.964
- relative viability ([1]; first compound 2 µM): 1.11
- relative viability ([2]; first compound 0.02 µM): 1.02
- relative viability ([2]; first compound 0.06325 µM): 1.15
- relative viability ([2]; first compound 0.2 µM): 1.19
- relative viability ([2]; first compound 0.6325 µM): 1.02
- relative viability ([2]; first compound 2 µM): 1.37
- relative viability ([3]; 0.02 µM): 0.978
- relative viability ([3]; 0.06325 µM): 1
- relative viability ([3]; 0.2 µM): 1.01
- relative viability ([3]; 0.6325 µM): 0.925
- relative viability ([3]; 2 µM): 1.06
- relative viability (BGJ398; 0.01 µM): 0.955
- relative viability (BGJ398; 0.03162 µM): 1.05
- relative viability (BGJ398; 0.1 µM): 1.05
- relative viability (BGJ398; 0.3162 µM): 0.968
- relative viability (BGJ398; 1 µM): 0.919
